According to paper PMC4300089, “Structure-Guided Design of Selective Epac1 and Epac2 Agonists” (PLoS Biology, 2015):

Molecular target: T1, Epac2^Δ280 (Mus musculus, UniProt Q9EQZ6)
T1 construct: made in house
T1 sequence (Q9EQZ6 281-993 isoform Q9EQZ6-3): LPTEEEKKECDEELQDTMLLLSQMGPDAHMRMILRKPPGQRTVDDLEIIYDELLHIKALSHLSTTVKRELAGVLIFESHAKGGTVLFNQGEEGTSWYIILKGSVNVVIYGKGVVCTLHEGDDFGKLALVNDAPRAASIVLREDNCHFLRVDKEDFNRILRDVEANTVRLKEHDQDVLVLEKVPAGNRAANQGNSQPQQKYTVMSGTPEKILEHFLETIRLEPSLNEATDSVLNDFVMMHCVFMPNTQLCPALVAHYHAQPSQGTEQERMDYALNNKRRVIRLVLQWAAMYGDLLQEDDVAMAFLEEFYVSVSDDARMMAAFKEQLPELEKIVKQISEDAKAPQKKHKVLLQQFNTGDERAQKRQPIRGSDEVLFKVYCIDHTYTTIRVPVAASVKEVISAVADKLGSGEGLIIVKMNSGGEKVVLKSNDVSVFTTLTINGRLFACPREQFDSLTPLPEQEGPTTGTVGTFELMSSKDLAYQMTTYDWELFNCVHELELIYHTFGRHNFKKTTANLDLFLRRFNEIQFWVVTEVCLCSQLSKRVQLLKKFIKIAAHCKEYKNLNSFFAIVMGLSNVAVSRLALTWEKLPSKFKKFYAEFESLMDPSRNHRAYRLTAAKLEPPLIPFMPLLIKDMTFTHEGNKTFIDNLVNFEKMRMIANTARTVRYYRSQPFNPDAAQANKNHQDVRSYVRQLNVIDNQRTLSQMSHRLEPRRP
Experiment: Epac activation assay (Rap1B•mGDP fluorescence nucleotide exchange), Epac2^Δ280
Type: biochemical
Conditions: for AC50 / Rel. kmax: Epac2^Δ280; for Rel. kmax: maximal activity relative to cAMP
Experimental: Murine Epac2 was used as all previous structural studies were performed with it.
The activity of Epac was determined by a fluorescence assay. […] The fluorescence intensity of Rap1B•mGDP is approximately twice that of free mGDP, and thus, nucleotide exchange can be observed as a decay in fluorescence upon the addition of excess unlabeled GDP.

Compound | AC50 | Rel. kmax | activation (Epac2)
CSc1nc2c(N)ncnc2n1[C@@H]1O[C@@H]2COP(=O)(O)O[C@H]2[C@H]1O [L-024, 8-MeT-cAMP] | 140 nM | 2.0 | –
O=P1(O)OCC2OC(n3cnc4c(NCc5ccccc5)ncnc43)C(O)C2O1 (stereo not drawn) [N-001, N^6-Bn-cAMP] | 1100 nM | 0.3 | –
CCN(CC)c1nc2c(N)ncnc2n1[C@@H]1O[C@@H]2CO[P@](O)(=S)O[C@H]2[C@H]1O [S-090, Sp-8-DEA-cAMPS] | 10000 nM | 4.1 | –
Nc1ncnc2c1nc(SCc1ccc(Cl)cc1)n2[C@@H]1O[C@@H]2CO[P@](O)(=S)O[C@H]2[C@H]1O [S-260, Sp-8-pCBnT-cAMPS] | 80 nM | 4.3 | –
COc1nc2c(N)ncnc2n1[C@@H]1O[C@@H]2CO[P@](O)(=S)O[C@H]2[C@H]1O [S-140, Sp-8-MeO-cAMPS] | 700 nM | 7.3 | –
C[Se]c1nc2c(N)ncnc2n1[C@@H]1O[C@@H]2COP(=O)(O)O[C@H]2[C@H]1O [L-027, 8-MeSe-cAMP] | 180 nM | 1.5 | –
O=C(Nc1ncnc2c1ncn2[C@@H]1O[C@@H]2COP(=O)(O)O[C@H]2[C@H]1O)c1ccccc1 [N-002, N^6-Bnz-cAMP] | 2900 nM | 0.1 | inability to activate Epac2
COc1nc2c(N)ncnc2n1[C@@H]1O[C@@H]2COP(=O)(O)O[C@H]2[C@H]1O [L-022, 8-MeO-cAMP] | 600 nM | 2.0 | –
Sp-8-PIA-cAMPS [S-120] | 14000 nM | 2.3 | –
C=CCO[C@@H]1[C@@H]2OP(=O)(O)OC[C@H]2O[C@H]1n1cnc2c(N)ncnc21 [Z-007, 2′-O-All-cAMP] | 70000 nM | 1.0 | –
COc1ccc(CSc2nc3c(N)ncnc3n2[C@@H]2O[C@@H]3CO[P@](O)(=S)O[C@H]3[C@H]2O)cc1 [S-250, Sp-8-pMeOBnT-cAMPS] | 110 nM | 5.4 | –
Nc1ncnc2c1nc([Se]Cc1ccccc1)n2[C@@H]1O[C@@H]2COP(=O)(O)O[C@H]2[C@H]1O [L-028, 8-BnSe-cAMP] | 30 nM | 1.7 | –
CC(C)N(C)c1nc2c(N)ncnc2n1[C@@H]1O[C@@H]2CO[P@](O)(=S)O[C@H]2[C@H]1O [S-100, Sp-8-iPrMeA-cAMPS] | 7000 nM | 4.5 | –
Nc1ncnc2c1nc(SCc1ccc(F)cc1)n2[C@@H]1O[C@@H]2CO[P@](O)(=S)O[C@H]2[C@H]1O [S-280, Sp-8-pFBnT-cAMPS] | 110 nM | 4.9 | –
Nc1ncnc2c1nc(Cl)n2[C@@H]1O[C@@H]2CO[P@](O)(=S)O[C@H]2[C@H]1Cl [S-021] | 12000 nM | 0.5 | –
CNc1nc2c(N)ncnc2n1[C@@H]1O[C@@H]2CO[P@](O)(=S)O[C@H]2[C@H]1F [S-032, Sp-8-MeA-2′-F-cAMPS] | 9500 nM | 3.9 | –
C=CCNc1nc2c(N)ncnc2n1[C@@H]1O[C@@H]2COP(=O)(O)O[C@H]2[C@H]1O [L-011, 8-AllA-cAMP] | 1900 nM | 1.5 | –
Nc1ncnc2c1nc(Cl)n2[C@@H]1O[C@@H]2COP(=O)(O)O[C@H]2[C@H]1Cl [D-006, 8,2′-DCl-cAMP] | 14000 nM | 0.7 | –
CCCO[C@@H]1[C@@H]2OP(=O)(O)OC[C@H]2O[C@H]1n1cnc2c(N)ncnc21 [Z-005, 2′-O-Pr-cAMP] | 70000 nM | 0.5 | –
Nc1ncnc2c1nc(NCCCCO)n2[C@@H]1O[C@@H]2COP(=O)(O)O[C@H]2[C@H]1O [L-008, 8-OHBuA-cAMP] | 2600 nM | 1.6 | –
Nc1ncnc2c1nc(Cl)n2[C@@H]1O[C@@H]2COP(O)(=S)O[C@@H]2C1O (stereo partly drawn) [S-020, Sp-8-Cl-cAMPS] | 400 nM | 3.8 | –
CN(C)c1nc2c(N)ncnc2n1[C@@H]1O[C@@H]2COP(=O)(O)O[C@H]2[C@H]1O [L-015, 8-DMeA-cAMP] | 1400 nM | 3.6 | –
8-PIA-cAMP [L-019] | 19000 nM | 3.8 | –
NCCCCCCNc1nc2c(N)ncnc2n1[C@@H]1O[C@@H]2COP(=O)(O)O[C@H]2[C@H]1O [L-010, 8-AHA-cAMP] | 1200 nM | 1.8 | –
Nc1ncnc2c1nc(Sc1ccc(O)cc1)n2[C@@H]1O[C@@H]2CO[P@](O)(=S)O[C@H]2[C@H]1O [S-200, Sp-8-pOHPT-cAMPS] | 70 nM | 1.2 | –

Compound | AC50 | Rel. kmax | activation (Epac2)
CC(C)(C)c1ccc(CSc2nc3c(N)ncnc3n2[C@@H]2O[C@@H]3CO[P@](O)(=S)O[C@H]3[C@H]2O)cc1 [S-240, Sp-8-ptBuBnT-cAMPS] | 100 nM | 5.0 | –
[N-]=[N+]=Nc1nc2c(N)ncnc2n1[C@@H]1O[C@@H]2COP(=O)(O)O[C@H]2[C@H]1O [L-004, 8-N3-cAMP] | 200 nM | 0.7 | –
CO[C@@H]1[C@@H]2OP(=O)(O)OC[C@H]2O[C@H]1n1c([Se]Cc2ccccc2)nc2c(N)ncnc21 [D-013, 8-BnSe-2′-O-Me-cAMP] | 3600 nM | 2.3 | –
CCN(C)c1nc2c(N)ncnc2n1[C@@H]1O[C@@H]2CO[P@](O)(=S)O[C@H]2[C@H]1O [S-080, Sp-8-EMeA-cAMPS] | 1800 nM | 7.6 | –
CNc1nc2c(N)ncnc2n1[C@@H]1O[C@@H]2CO[P@](O)(=S)O[C@H]2[C@H]1OC [S-034, Sp-8-MeA-2′-O-Me-cAMPS] | 20000 nM | 0.7 | –
CCNc1nc2c(N)ncnc2n1[C@@H]1O[C@@H]2CO[P@](O)(=S)O[C@H]2[C@H]1O [S-040, Sp-8-EA-cAMPS] | 1900 nM | 5.4 | –
Nc1ncnc2c1nc(NCCO)n2[C@@H]1O[C@@H]2COP(=O)(O)O[C@H]2[C@H]1O [L-007, 8-OHEA-cAMP] | 2600 nM | 1.0 | –
CO[C@@H]1[C@@H]2O[P@@](O)(=S)OC[C@H]2O[C@H]1n1c(SC)nc2c(N)ncnc21 [S-180, Sp-8-MeT-2′-O-Me-cAMPS] | 3700 nM | 3.2 | –
Nc1ncnc2c1nc(N1CCOCC1)n2[C@@H]1O[C@@H]2COP(=O)(O)O[C@H]2[C@H]1O [L-020, 8-Morph-cAMP] | 18000 nM | 3.8 | –
CSc1nc2c(N)ncnc2n1[C@@H]1O[C@@H]2CO[P@](O)(=S)O[C@H]2[C@H]1F [S-170, Sp-8-MeT-2′-F-cAMPS] | 6900 nM | 2.8 | –
C[C@H](O)CNc1nc2c(N)ncnc2n1[C@@H]1O[C@@H]2COP(=O)(O)O[C@H]2[C@H]1O [L-012, 8-(S-2-OHPrA)-cAMP] | 8000 nM | 0.5 | –
Nc1ncnc2c1nc(N)n2[C@@H]1O[C@@H]2COP(=O)(O)O[C@H]2[C@H]1O [L-003, 8-NH2-cAMP] | 200 nM | 0.7 | –
Nc1ncnc2c1nc(OCc1ccccc1)n2[C@@H]1O[C@@H]2COP(=O)(O)O[C@H]2[C@H]1O [L-023, 8-BnO-cAMP] | 1300 nM | 1.6 | –
Nc1ncnc2c1nc(OCc1ccccc1)n2[C@@H]1O[C@@H]2CO[P@](O)(=S)O[C@H]2[C@H]1O [S-150, Sp-8-BnO-cAMPS] | 1300 nM | 4.8 | –
Nc1ncnc2c1nc(N1CCCCC1)n2[C@@H]1O[C@@H]2CO[P@](O)(=S)O[C@H]2[C@H]1O [S-110, Sp-8-PIP-cAMPS] | 9500 nM | 3.7 | –
O=P1(O)OC[C@H]2O[C@@H](n3cnc4c(Nc5ccccc5)ncnc43)[C@H](O)[C@@H]2O1 [N-003, N^6-Phe-cAMP] | 300 nM | 0.6 | –
Nc1ncnc2c1nc(SCc1cccc([N+](=O)[O-])c1)n2[C@@H]1O[C@@H]2CO[P@](O)(=S)O[C@H]2[C@H]1O [S-290, Sp-8-mNBnT-cAMPS] | 160 nM | 4.3 | –
CCN(CC)c1nc2c(N)ncnc2n1[C@@H]1O[C@@H]2COP(=O)(O)O[C@H]2[C@H]1O [L-016, 8-DEA-cAMP] | 9000 nM | 5.1 | –
Nc1ncnc2c1nc(Sc1ccc(O)cc1)n2[C@@H]1O[C@@H]2CO[P@](O)(=S)O[C@H]2[C@H]1F [S-201, Sp-8-pOHPT-2′-F-cAMPS] | 1600 nM | 1.0 | –
CCCCCCNc1nc2c(N)ncnc2n1[C@@H]1O[C@@H]2COP(=O)(O)OC2[C@@H]1O (stereo partly drawn) [L-009, 8-HA-cAMP] | 2500 nM | 2.0 | –
Sp-8-ADOA-cAMPS [S-060] | 6200 nM | 2.1 | –
CN(C)c1nc2c(N)ncnc2n1[C@@H]1O[C@@H]2CO[P@](O)(=S)O[C@H]2[C@H]1O [S-070, Sp-8-DMeA-cAMPS] | 2100 nM | 9.3 | –
Nc1ncnc2c1nc(SCc1ccccc1)n2[C@@H]1O[C@@H]2COP(=O)(O)O[C@H]2[C@H]1F [D-011, 8-BnT-2′-F-cAMP] | 2900 nM | 1.6 | –
Nc1ncnc2c1nc(SCc1cccc(C(F)(F)F)c1)n2[C@@H]1O[C@@H]2CO[P@](O)(=S)O[C@H]2[C@H]1O [S-300, Sp-8-mTFMeBnT-cAMPS] | 140 nM | 5.0 | –
